Broadly, the solubility (kinetic) is the concentration staying in solution when a stock, usually in DMSO, is diluted into the medium.

≈ marks a conversion by molar mass, not a printed value. Where only a bound is given, the exact number is not on record here.

Consider 52 compounds from PubChem BioAssay AID1996.

The conditions of this data set: buffer; pH 7.4; 200.0 µM.
Compound `CCOc1ccc(-c2nc(N)ncc2Oc2ccc(OC)cc2)c(O)c1` displayed a kinetic solubility of 1 µg/mL (≈ 2.83 µM).

Regarding `Brc1ccc(OCCCOc2cccc3cccnc23)cc1`, the kinetic solubility is under 0.8 µg/mL.

On to `CC(Cl)C(=O)c1ccc2c(c1)CCN2C(=O)C1CC1` (configuration not stated), for which the kinetic solubility was determined as 9.6 µg/mL (≈ 34.6 µM).

For `CC(=O)c1cccc(NC(=O)CCNC(=O)c2cccc(C)c2)c1`, the solubility (kinetic) turned out to be 20.5 µg/mL (≈ 63.2 µM). This solubility kinetic lies about 2.1-fold higher than the previous one.

The compound `O=[N+]([O-])c1ccccc1S(=O)(=O)N1CCN(c2ccccn2)CC1` had a solubility (kinetic) of 4.1 µg/mL (≈ 11.8 µM).

In turn, `CCN(CC(=O)NCc1cccs1)C(=O)c1ccc(Cl)c(Cl)c1` returned a kinetic solubility of over 55.7 µg/mL.

The compound `CC(=O)C(c1ccccc1)C(c1ccccc1)C(C)[N+](=O)[O-]` (configuration not stated) came in with a solubility (kinetic) of under 0.6 µg/mL.

In the case of `COC(=O)c1ccc(N2CCS(=O)(=O)CC2)cc1`, the solubility (kinetic) was over 40.4 µg/mL.

`CCN1c2ccccc2S(=O)(=O)c2ccccc21` came in with a solubility (kinetic) of 15.6 µg/mL (≈ 60.2 µM).

`CC1=NOC(=O)/C1=C\c1ccc2c(c1)OCO2` showed a solubility (kinetic) of 32 µg/mL (≈ 138 µM). This solubility kinetic lies about 2.1-fold higher than the previous one.

As to `Cc1ccc(S(=O)(=O)NC(C)CCc2ccccc2)cc1C(N)=O` (configuration not stated), the solubility (kinetic) is over 52 µg/mL.

Consider `CCOC(=O)C1CCCN(C(=O)CSc2nnc3nc(C)cc(C)n23)C1` (configuration not stated), for which the kinetic solubility is over 56.6 µg/mL.

In the case of `COC(=O)c1ccc(N2CCN(c3ccccc3)CC2)c(N)c1`, the kinetic solubility was found to be 0.8 µg/mL (≈ 2.57 µM).

`COc1ccc(N2CC(C(=O)Nc3ccncc3)CC2=O)cc1` (configuration not stated) yielded a kinetic solubility of over 46.7 µg/mL.

With `Cc1ccc(C2C(C#N)=C(N)Oc3cc(N)ccc32)cc1` (configuration not stated), the solubility (kinetic) turned out to be 4.4 µg/mL (≈ 15.9 µM).

Compound `Cc1cc(C(=O)Nc2ccc(F)cc2F)on1` displayed a kinetic solubility of over 35.7 µg/mL.

`O=S1(=O)CC(O)C(NCCO)C1` (configuration not stated) yielded a kinetic solubility of over 29.3 µg/mL.

Turning to `O=C(CSc1ccc(F)cc1)Nc1cccc(S(=O)(=O)N2CCOCC2)c1`, the solubility (kinetic) was over 61.6 µg/mL.

In turn, `CCc1cccc(OC2OC(CO)C(O)C(O)C2NC(C)=O)c1` (configuration not stated) gave a kinetic solubility of over 48.8 µg/mL.

In the case of `CN1CCN2c3ccccc3CC3(C(=O)N(C)C(=O)N(C)C3=O)C2C1` (configuration not stated), the solubility (kinetic) is over 51.4 µg/mL.

Compound `O=[N+]([O-])c1ccc(N2CCCC2)nc1N1CCCC1` yielded a kinetic solubility of 21.4 µg/mL (≈ 81.6 µM).

In turn, `NC12NC(=O)C3(O)C4C5CC(C6C5C3C61)C42` (configuration not stated) displayed a kinetic solubility of over 32.7 µg/mL.

`O=C1C(=O)N(Cc2cccs2)c2ccccc21` had a kinetic solubility of over 36.5 µg/mL.

As to `NS(=O)(=O)c1cnccc1NCCc1ccccc1`, the solubility (kinetic) is 40.3 µg/mL (≈ 145 µM).

As to `COC(=O)c1ccc(/C=C(\C#N)c2ccccn2)cc1`, the solubility (kinetic) was found to be 1.8 µg/mL (≈ 6.81 µM).

Compound `Cc1sc(NC(=O)COc2ccccc2)c(C#N)c1C` came in with a solubility (kinetic) of 0.5 µg/mL (≈ 1.75 µM). This solubility kinetic is about 3.6-fold lower than that of the compound before.

`Cc1cc(C)cc(OCC(=O)N2CCN(c3ncccn3)CC2)c1` had a kinetic solubility of over 49 µg/mL.

In turn, `Cc1cc(C)cc(NC(=O)Nc2ccc3ccccc3n2)c1` displayed a kinetic solubility of under 0.2 µg/mL.

`N#Cc1ccc(C(CC(=O)O)N2Cc3ccccc3C2=O)cc1` (configuration not stated) came in with a solubility (kinetic) of 44 µg/mL (≈ 144 µM).

With `COc1ccc(CC(=O)NC2CC2)cc1OC`, the kinetic solubility was over 35.3 µg/mL.

Consider `O=C(COC(=O)COc1ccc(Cl)cc1Cl)NC1CC1`, for which the solubility (kinetic) was over 47.7 µg/mL.

As for `Cc1cc(C(=O)Nc2ccc(OCc3ccccc3)cc2)c(C)o1`, the solubility (kinetic) is under 0.7 µg/mL.

Take `COc1ccc(/C=C/C(=O)NC(=S)N2CCCCC2)cc1OC`: the solubility (kinetic) is over 50.2 µg/mL.

`COCc1cc(=O)oc2cc(NS(=O)(=O)c3ccc(C)cc3)ccc12` displayed a kinetic solubility of 1.3 µg/mL (≈ 3.62 µM).

`CCOC(=O)N1CCN(CCC(=O)c2ccc(Cl)cc2)CC1.Cl` registered a solubility (kinetic) of over 48.7 µg/mL.

`O=C(Cc1ccc(Cl)cc1)Nc1cccc2ncccc12`: the solubility (kinetic) worked out at 3.9 µg/mL (≈ 13.1 µM).

`O=C(c1ccccc1)N1CCn2c1nc1ccccc12`: the kinetic solubility is 9.2 µg/mL (≈ 34.9 µM).

Take `COC(=O)CN1C(=O)N/C(=C/c2ccc(OC)c(C)c2OC)C1=O`: the solubility (kinetic) is 4 µg/mL (≈ 12 µM).

In turn, `Clc1nnc(Cl)c2c1ncn2Cc1ccccc1` registered a solubility (kinetic) of over 41.9 µg/mL.

As for `O=S1(=O)c2cccc3cccc(c23)N1CCBr`, the solubility (kinetic) was found to be 17.7 µg/mL (≈ 56.7 µM).

As to `COc1ccc(NC(=O)c2sccc2-n2cccc2)cc1`, the solubility (kinetic) was 3.4 µg/mL (≈ 11.4 µM).

Regarding `CC(C)CC(NC(N)=O)C(=O)Nc1ccc2c(c1)OCO2` (configuration not stated), the solubility (kinetic) was over 44 µg/mL.

`COc1ccc(S(=O)(=O)N2CCN(c3cnccn3)CC2)cc1`: the kinetic solubility is over 50.2 µg/mL.

In the case of `Cc1ccc2oc(C(=O)NCC(c3ccco3)N(C)C)c(C)c2c1` (configuration not stated), the kinetic solubility is over 49 µg/mL.

Compound `Cc1cc(C(=O)NCc2ccccc2Cl)c2ccccc2n1` came in with a kinetic solubility of 4.1 µg/mL (≈ 13.2 µM).

Consider `CC(C)(C)NC(=S)N1CCC(C(=O)c2ccc(F)cc2)CC1`, for which the solubility (kinetic) came to 5.2 µg/mL (≈ 16.1 µM).

`Cc1ccnc(NC(=O)COc2ccc3c(c2)CCC3)c1` registered a kinetic solubility of 1.6 µg/mL (≈ 5.67 µM).

As for `CN(C(=O)c1ccco1)c1nc(-c2ccccc2)cs1`, the solubility (kinetic) is under 0.3 µg/mL.

Compound `COCCCNC(=S)Nc1cc2oc3ccccc3c2cc1OC` returned a solubility (kinetic) of 3.9 µg/mL (≈ 11.3 µM).

Compound `COC(=O)c1c(C)nsc1NC(=O)Oc1ccccc1` had a kinetic solubility of 2.7 µg/mL (≈ 9.24 µM).

Compound `O=C(Nc1cccnc1N1CCOCC1)c1cccs1` displayed a kinetic solubility of over 43.4 µg/mL.

As for `O=C(Cn1c(=O)oc2ccccc21)Nc1ccc(Cl)cc1`, the solubility (kinetic) was 1.8 µg/mL (≈ 5.95 µM).
